One assay has as its target T1, Ephrin type-B receptor 3 (Homo sapiens, UniProt P54753).
T1 sequence (P54753 whole entry): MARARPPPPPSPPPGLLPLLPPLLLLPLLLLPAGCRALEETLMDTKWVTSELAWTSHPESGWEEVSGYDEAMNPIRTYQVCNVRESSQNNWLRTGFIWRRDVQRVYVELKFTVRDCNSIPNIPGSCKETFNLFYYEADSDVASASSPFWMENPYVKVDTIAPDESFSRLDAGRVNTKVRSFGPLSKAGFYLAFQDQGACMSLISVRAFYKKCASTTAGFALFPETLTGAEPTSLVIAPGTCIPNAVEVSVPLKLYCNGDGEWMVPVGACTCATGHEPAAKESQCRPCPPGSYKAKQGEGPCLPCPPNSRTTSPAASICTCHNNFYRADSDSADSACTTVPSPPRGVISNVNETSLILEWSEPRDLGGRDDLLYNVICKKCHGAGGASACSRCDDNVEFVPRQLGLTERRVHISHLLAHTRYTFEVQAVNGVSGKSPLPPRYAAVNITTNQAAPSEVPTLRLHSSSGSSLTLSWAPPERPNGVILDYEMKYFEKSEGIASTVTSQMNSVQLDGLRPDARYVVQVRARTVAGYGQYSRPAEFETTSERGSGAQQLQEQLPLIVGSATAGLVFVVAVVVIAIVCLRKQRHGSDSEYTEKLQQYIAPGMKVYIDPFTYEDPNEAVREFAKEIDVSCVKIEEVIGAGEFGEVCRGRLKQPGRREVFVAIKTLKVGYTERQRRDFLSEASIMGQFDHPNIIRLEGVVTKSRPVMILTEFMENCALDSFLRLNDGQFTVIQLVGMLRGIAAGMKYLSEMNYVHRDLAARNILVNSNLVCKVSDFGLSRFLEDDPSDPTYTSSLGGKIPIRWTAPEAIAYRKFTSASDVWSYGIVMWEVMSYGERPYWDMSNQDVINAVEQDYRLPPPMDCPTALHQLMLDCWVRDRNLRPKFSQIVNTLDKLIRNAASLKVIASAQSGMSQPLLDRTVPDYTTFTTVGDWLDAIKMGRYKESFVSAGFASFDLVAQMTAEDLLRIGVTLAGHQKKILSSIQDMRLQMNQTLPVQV

In assay [1] the target is Tyrosine-protein kinase Lck (Homo sapiens, UniProt P06239).
The target of assay [2] is T2, Calcium/calmodulin-dependent protein kinase type IV (Homo sapiens, UniProt Q16566).
T2 sequence (Q16566 whole entry): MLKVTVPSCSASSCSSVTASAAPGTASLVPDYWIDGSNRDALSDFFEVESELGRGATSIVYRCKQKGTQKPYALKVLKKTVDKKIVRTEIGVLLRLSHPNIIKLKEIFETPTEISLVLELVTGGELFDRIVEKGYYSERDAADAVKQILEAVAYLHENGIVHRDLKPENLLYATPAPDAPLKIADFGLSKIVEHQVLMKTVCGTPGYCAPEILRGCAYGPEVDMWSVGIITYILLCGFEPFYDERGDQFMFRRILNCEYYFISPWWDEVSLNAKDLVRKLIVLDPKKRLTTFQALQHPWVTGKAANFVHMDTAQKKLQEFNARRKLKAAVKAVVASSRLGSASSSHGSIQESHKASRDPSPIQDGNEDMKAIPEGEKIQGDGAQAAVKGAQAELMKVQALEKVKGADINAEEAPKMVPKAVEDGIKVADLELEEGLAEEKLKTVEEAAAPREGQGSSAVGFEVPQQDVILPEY

Assay [3] addresses T3, Phosphatidylinositol 5-phosphate 4-kinase type-2 gamma (Homo sapiens, UniProt Q8TBX8).
T3 sequence (Q8TBX8 whole entry): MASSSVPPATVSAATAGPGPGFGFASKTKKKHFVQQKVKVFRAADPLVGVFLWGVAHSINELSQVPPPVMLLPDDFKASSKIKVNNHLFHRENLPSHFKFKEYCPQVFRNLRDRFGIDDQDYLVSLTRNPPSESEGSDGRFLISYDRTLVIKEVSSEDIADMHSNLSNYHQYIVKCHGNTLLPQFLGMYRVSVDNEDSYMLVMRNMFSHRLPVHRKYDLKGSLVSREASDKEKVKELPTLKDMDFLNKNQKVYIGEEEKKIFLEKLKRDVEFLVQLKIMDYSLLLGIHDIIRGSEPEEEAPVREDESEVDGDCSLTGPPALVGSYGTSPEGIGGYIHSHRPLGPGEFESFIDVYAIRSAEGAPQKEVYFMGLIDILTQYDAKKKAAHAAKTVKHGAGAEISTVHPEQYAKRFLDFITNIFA

The target of assay [4] is T4, AarF domain-containing protein kinase 1 (Homo sapiens, UniProt Q86TW2).
T4 sequence (Q86TW2 whole entry): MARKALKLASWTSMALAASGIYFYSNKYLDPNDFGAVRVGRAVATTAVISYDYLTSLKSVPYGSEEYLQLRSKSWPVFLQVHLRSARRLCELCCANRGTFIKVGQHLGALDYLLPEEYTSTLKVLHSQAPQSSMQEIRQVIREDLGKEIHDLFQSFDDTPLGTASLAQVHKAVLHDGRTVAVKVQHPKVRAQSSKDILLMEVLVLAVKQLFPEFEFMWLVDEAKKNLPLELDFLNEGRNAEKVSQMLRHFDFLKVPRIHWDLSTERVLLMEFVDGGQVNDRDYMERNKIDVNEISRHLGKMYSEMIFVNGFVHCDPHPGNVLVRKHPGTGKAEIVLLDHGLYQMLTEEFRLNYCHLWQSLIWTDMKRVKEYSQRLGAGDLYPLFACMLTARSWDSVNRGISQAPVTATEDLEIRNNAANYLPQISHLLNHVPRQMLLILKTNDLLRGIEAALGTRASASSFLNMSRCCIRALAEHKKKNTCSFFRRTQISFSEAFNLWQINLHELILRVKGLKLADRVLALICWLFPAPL

Assay [5] concerns the target Maternal embryonic leucine zipper kinase (Homo sapiens, UniProt Q14680).
For assay [6], the target named is cAMP-dependent protein kinase catalytic subunit alpha (Homo sapiens, UniProt P17612).

The source made the active and inactive calls. For most assays here, no stated cut-off is given here; in the data, actives have a measured Kd and inactives only a lower limit.

Sequence of Maternal embryonic leucine zipper kinase (Q14680 whole entry): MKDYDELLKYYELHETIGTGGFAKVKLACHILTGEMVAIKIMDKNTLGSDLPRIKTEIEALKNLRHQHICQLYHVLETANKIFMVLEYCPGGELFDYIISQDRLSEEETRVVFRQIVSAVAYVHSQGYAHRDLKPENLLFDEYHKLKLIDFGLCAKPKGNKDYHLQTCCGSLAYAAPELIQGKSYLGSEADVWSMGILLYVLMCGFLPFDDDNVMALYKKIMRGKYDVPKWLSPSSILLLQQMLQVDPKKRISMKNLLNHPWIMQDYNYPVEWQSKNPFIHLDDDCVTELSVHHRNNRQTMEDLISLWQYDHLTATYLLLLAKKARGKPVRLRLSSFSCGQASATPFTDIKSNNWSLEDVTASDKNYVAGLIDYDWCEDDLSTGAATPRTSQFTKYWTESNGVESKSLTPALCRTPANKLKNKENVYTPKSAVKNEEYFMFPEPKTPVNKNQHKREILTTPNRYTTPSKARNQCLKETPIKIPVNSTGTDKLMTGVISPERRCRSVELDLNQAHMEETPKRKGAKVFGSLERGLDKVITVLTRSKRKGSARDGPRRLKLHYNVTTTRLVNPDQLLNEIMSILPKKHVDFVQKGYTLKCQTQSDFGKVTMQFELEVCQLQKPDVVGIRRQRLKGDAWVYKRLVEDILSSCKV
Sequence of Tyrosine-protein kinase Lck (P06239 whole entry): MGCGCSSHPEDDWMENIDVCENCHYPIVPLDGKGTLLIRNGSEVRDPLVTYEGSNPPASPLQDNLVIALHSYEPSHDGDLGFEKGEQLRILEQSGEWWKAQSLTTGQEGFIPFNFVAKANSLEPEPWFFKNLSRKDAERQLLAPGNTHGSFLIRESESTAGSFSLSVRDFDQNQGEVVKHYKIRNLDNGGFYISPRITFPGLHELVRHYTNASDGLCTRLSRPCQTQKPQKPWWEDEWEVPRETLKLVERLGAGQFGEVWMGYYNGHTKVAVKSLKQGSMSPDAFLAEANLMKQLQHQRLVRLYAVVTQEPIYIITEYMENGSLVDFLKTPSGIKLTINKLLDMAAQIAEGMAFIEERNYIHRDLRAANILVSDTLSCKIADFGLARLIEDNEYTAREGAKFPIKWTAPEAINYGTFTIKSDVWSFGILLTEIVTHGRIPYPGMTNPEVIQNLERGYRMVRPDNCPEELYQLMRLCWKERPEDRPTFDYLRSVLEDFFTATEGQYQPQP

On to `O=C(Nc1ccc(-c2ccnc(Nc3ccc(N4CCOCC4)cc3)n2)cc1)C1CCCN1` (stereo not given) [XL-019], for which the Kd (commonly the equilibrium constant for the complex coming apart) on Ephrin type-B receptor 3 is > 30 µM (inactive); in assay [1] it was > 30 µM (inactive); in assay [2], > 30 µM (inactive); in assay [3] it was 1.59 µM (active); in assay [4], 0.202 µM (active); in assay [5] it was > 30 µM (inactive). In addition, the Kd in assay [6] was > 30 µM (inactive).
As for `Cn1ncc(Cl)c1-c1cc(C(=O)N[C@H](CN)Cc2cccc(F)c2)sc1Cl` [AFURESERTIB], the Kd (on Ephrin type-B receptor 3; in assay [1]; in assay [2]; in assay [3]; in assay [4]; in assay [5]) was > 30 µM (inactive) throughout. Further, the dissociation constant Kd in assay [6] is 0.133 µM (active).
With `CNC(=O)CN1CCC(Oc2cc3c(Nc4cccc(Cl)c4F)ncnc3cc2OC)CC1` [SAPITINIB], the Kd (on Ephrin type-B receptor 3; in assay [1]; in assay [2]; in assay [3]; in assay [4]; in assay [5]) was > 30 µM (inactive) in each case. Also, the Kd in assay [6] is > 30 µM (inactive).
Turning to `CC(=O)Nc1cccc(-n2c(=O)n(C3CC3)c(=O)c3c(Nc4ccc(I)cc4F)n(C)c(=O)c(C)c32)c1` [TRAMETINIB], the Kd (on Ephrin type-B receptor 3; in assay [1]; in assay [2]; in assay [3]; in assay [4]; in assay [5]) was > 30 µM (inactive) each time. In addition, the Kd in assay [6] was > 30 µM (inactive).
On to `COC(=O)N[C@@H](C)CNc1nccc(-c2cn(C(C)C)nc2-c2cc(Cl)cc(NS(C)(=O)=O)c2F)n1` [ENCORAFENIB], for which the Kd (at Ephrin type-B receptor 3; in assay [1]; in assay [2]; in assay [3]; in assay [4]; in assay [5]) was > 30 µM (inactive) throughout. In addition, the Kd in assay [6] is > 30 µM (inactive).
Turning to `CNC(=O)c1ccc(-c2cnc3ncc(Cc4ccc5ncccc5c4)n3n2)cc1F` [CAPMATINIB], the Kd (on Ephrin type-B receptor 3; in assay [1]; in assay [2]; in assay [3]; in assay [4]; in assay [5]) was > 30 µM (inactive) in each case. Further, the Kd in assay [6] is > 30 µM (inactive).
As to `COC(=O)[C@@]1(O)C[C@H]2O[C@]1(C)n1c3ccccc3c3c4c(c5c6ccccc6n2c5c31)C(=O)NC4` [K-252A], the Kd at Ephrin type-B receptor 3 is > 30 µM (inactive); in assay [1], > 30 µM (inactive); in assay [2] it was > 30 µM (inactive); in assay [3], > 30 µM (inactive); in assay [4], 6.09 µM (active); in assay [5], 0.083 µM (active). Moreover, the Kd in assay [6] was > 30 µM (inactive).
As for `CCS(=O)(=O)N1CC(CC#N)(n2cc(-c3ncnc4[nH]ccc34)cn2)C1` [BARICITINIB], the Kd (on Ephrin type-B receptor 3; in assay [1]; in assay [2]; in assay [3]; in assay [4]; in assay [5]) was > 30 µM (inactive) in each case. Moreover, the Kd in assay [6] was 3.6 µM (active).
`CNS(=O)(=O)Nc1nccc(Cc2c(C)c3ccc(Oc4ncccn4)cc3oc2=O)c1F` [AVUTOMETINIB]: the Kd (on Ephrin type-B receptor 3; in assay [1]; in assay [2]; in assay [3]; in assay [4]; in assay [5]) was > 30 µM (inactive) each time. The Kd in assay [6] was > 30 µM (inactive).
As to `COc1ccc(-c2ccc3c(N4CCOC[C@@H]4C)nc(N4CCOC[C@@H]4C)nc3n2)cc1CO` [AZD-8055], the Kd (at Ephrin type-B receptor 3; in assay [1]; in assay [2]; in assay [3]; in assay [4]; in assay [5]) was > 30 µM (inactive) throughout. In addition, the Kd in assay [6] is > 30 µM (inactive).
As for `O=C(O)[C@]1(Cc2cccc(Nc3nccs3)n2)CC[C@@H](Oc2cccc(Cl)c2F)CC1` [MK-5108], the Kd (at Ephrin type-B receptor 3; in assay [1]; in assay [2]; in assay [3]; in assay [4]; in assay [5]) was > 30 µM (inactive) throughout. Moreover, the Kd in assay [6] is > 30 µM (inactive).
As for `O=C1NC(=O)/C(=C/c2ccc3nccc(-c4ccncc4)c3c2)S1` [GSK-1059615], the Kd at Ephrin type-B receptor 3 is > 30 µM (inactive); in assay [1], > 30 µM (inactive); in assay [2], > 30 µM (inactive); in assay [3], 0.331 µM; in assay [4], > 30 µM (inactive); in assay [5], > 30 µM (inactive). Moreover, the Kd in assay [6] is > 30 µM (inactive).
With `C[C@@H](Nc1cc(F)cc(F)c1)c1cc(C(=O)N(C)C)cc2c(=O)cc(N3CCOCC3)oc12` [AZD-8186], the Kd (on Ephrin type-B receptor 3; in assay [1]; in assay [2]; in assay [3]; in assay [4]; in assay [5]) was > 30 µM (inactive) each time. For the same compound, the Kd in assay [6] is > 30 µM (inactive).
On to `Cc1c(F)cc(C(=O)NC2CC2)cc1-c1ccc(C(=O)NCC(C)(C)C)cn1` [LOSMAPIMOD], for which the Kd (at Ephrin type-B receptor 3; in assay [1]; in assay [2]; in assay [3]; in assay [4]; in assay [5]) was > 30 µM (inactive) in each case. In addition, in assay [6], the Kd is > 30 µM (inactive).
In the case of `COc1cc(CCc2cc(NC(=O)c3ccc(N4C[C@@H](C)N[C@@H](C)C4)cc3)n[nH]2)cc(OC)c1` [AZD-4547], the Kd (on Ephrin type-B receptor 3; in assay [1]; in assay [2]; in assay [3]; in assay [4]; in assay [5]) was > 30 µM (inactive) each time. For the same compound, the Kd in assay [6] was > 30 µM (inactive).

These data come from ChEMBL document CHEMBL3991601, “The target landscape of clinical kinase drugs” (Science, 2017).
